From BindingDB's records for doi:10.1021/jm00126a018 (Amherst College, 1989) come the findings set out here.

This assay addresses Chymotrypsinogen A (Bos taurus) (UniProt P00766). Put plainly: Inhibition of chymotrypsin-catalyzed hydrolysis of BzTyr p-nitroanilide by compound at pH 5.

Each structure is given as a SMILES string. pKi: −log10 of the molar value.

For the compound `CC(=O)N[C@@H](C)C(=O)NN=CCNC(=O)c1ccccc1`, the negative-log Ki (pKi) (in general, the Ki on a negative log10 scale, so that one unit is a factor of ten) is < 2.10.
